From paper PMC10545747, “Development of cyclopeptide inhibitors of cGAS targeting protein-DNA interaction and phase separation” (Nature Communications, 2023)
Where “and” joins values, the source holds several entries; their conditions need not be identical. Equal entries are not always repeated. Entries after “also recorded” stand apart in the source; their conditions may differ. Square brackets hold non-standard residues; d marks the D form. Peptide text beside a SMILES is read from it.

Legend:
[1] = system: TREX1 knockdown THP1 cells; assay: qPCR of IFNB1 and CXCL10 mRNA after TREX1 siRNA; type: cell-based, human
Description: (§1) The indicated cells were stimulated with either ISD (Sangon Biotech), HSV-1 (Provided by Dr. Zhengfan Jiang), HSV60mer (Sangon Biotech), SATE-cddA[70], 2’3’-cGAMP (Invivogen, Cat# tlrl-nacga23-1), ADU-S100 (MedChemExpress, Cat# HY-12885A) or Poly(I:C) (Invivogen, Cat# tlrl-pic) after XQ2 or XQ2B treatment. Total RNA was isolated from indicated cells that incubated with the drugs for indicated time or mice tissues by using NucleoZOL reagent (MACHEREY-NAGEL) according to the manufacturer’s instructions. The quantifications of mRNA levels were carried out by real-time PCR using a PerfectStart® Uni RT&qPCR Kit (TransGen Biotech) on the QuantStudio 5 qPCR machine (Applied Biosystems). Samples were carried out in triplicate and the target CT values were normalized to GAPDH CT values. Primers of qPCR used in this study can be found in Supplementary Table S2.
siRNA of TREX1 (siTREX1) was transfected into the indicated cells by Lipofectamine RNAiMAX (Invitrogen) according to the manufacturer’s instructions. Human siTREX1, mouse siTrex1 and negative control siRNAs were purchased from Sangon Biotech. The sequences of siRNAs oligonucleotides can be found in Supplementary Table S2.
Supplementary Fig. 9. XQ2B reduces interferon expression induced by Trex1 deficiency. […]
TREX1 knockdown THP1 cells were treated with DMSO or XQ2B (10 μM) for 24 h, and the mRNA levels of TREX1
(e), IFNB1 and CXCL10 (f) were measured by qPCR. (e) p < 0.0001, (f) p = 0.0001 (Ifnb1); p = 0.0157 (Cxcl10). Data
(§2) Source data are provided as a Source Data file.

in vivo = conditions: C57BL/6, mouse, iv, 10 mg/kg
Description: Whole blood samples were collected in EDTA-K2 surface-coated tubes at 0.083, 0.25, 0.5, 1, 2, 5, 7, 24 h post administration. The results were analyzed by LC-MS.

[2] = system: THP1 cells stimulated with SATE-cddA, 2’3’-cGAMP or ADU-S100 (STING agonists); assay: qPCR of IFNB1 mRNA in THP1 cells stimulated by STING agonists; type: cell-based, human; design: key to IFNB1 mRNA level (Fig. S7c): relative mRNA level, target CT normalized to GAPDH CT
Description: as §1
IFNB1 mRNA relative level […]
Supplementary Fig. 7. XQ2B inhibits the activity of cGAS in vitro. […]
(e) THP1 cells were pretreated
Data are representative of
as §2

THP1 cells = assay: ELISA of IFN-β and CXCL10 after HSV-1 infection; type: cell-based, human
Description: THP1 cells were seeded into 96-well plates, and cell culture supernatants were collected and analyzed by ELISA kits for human IFNβ levels (R&D Systems, Cat# DY814-05) and human CXCL10 levels (R&D Systems, Cat# DY266-05) according to the manufacturer’s instructions. Mice serum was collected and analyzed by ELISA kits for mouse IFNβ levels (R&D Systems, Cat# DY8234-05) and mouse CXCL10 levels (R&D Systems, Cat# DY466-05) according to the manufacturer’s protocols.

[3] = target: T1, hcGAS-FL (D191R) mutant + FAM-ISD (Homo sapiens, UniProt Q8N884, D191R); assay: Fluorescence polarization competition of FAM-ISD binding
T1 construct: The gene encoding full-length human cGAS (hcGAS-FL); 6xHis-SUMO (N, cleaved yes); made in house; host or cells: Escherichia coli BL21 (DE3)
T1 sequence (Q8N884 whole entry D191R): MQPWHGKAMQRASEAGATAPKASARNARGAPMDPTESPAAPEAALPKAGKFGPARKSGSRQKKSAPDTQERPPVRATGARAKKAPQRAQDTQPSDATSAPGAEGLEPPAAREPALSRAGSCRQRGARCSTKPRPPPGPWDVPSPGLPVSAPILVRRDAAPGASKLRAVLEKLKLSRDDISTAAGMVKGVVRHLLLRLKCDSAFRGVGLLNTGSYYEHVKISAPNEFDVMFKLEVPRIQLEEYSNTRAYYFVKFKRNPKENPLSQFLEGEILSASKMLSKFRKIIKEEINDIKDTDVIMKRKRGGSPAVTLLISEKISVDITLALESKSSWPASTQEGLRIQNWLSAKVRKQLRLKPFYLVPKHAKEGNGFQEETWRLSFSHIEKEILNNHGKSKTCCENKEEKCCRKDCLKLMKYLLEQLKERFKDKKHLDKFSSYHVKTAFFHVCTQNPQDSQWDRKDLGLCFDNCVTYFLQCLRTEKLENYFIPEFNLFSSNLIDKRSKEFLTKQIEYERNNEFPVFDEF
Description: Samples were dispensed in 30 μ L final volumes per well into a 384-well flat-bottom black plate (Corning 3575). The polarization was detected by a microplate reader (BioTek Synergy H1) with a fluorescence polarization filter cube (excitation wavelength: 485 ± 10 nm; emission wavelength: 528 ± 10 nm) immediately.

hcGAS-FL (D191R) mutant = target: T2, hcGAS-FL (D191R) mutant (Homo sapiens, UniProt Q8N884, D191R); assay: Surface plasmon resonance (SPR); type: binding
T2 construct: The gene encoding full-length human cGAS (hcGAS-FL); 6xHis-SUMO (N, cleaved yes); made in house; host or cells: Escherichia coli BL21 (DE3)
T2 sequence (Q8N884 whole entry D191R): as above
Description: All SPR binding studies were performed with a Biacore 8 K instrument (GE Healthcare Life Sciences). hcGAS-FL / hcGAS-ΔN (1 mg mL^−1) was immobilized in a CM5 chip by EDC/NHS method. The tested peptide was diluted with running buffer (20 mM HEPES, pH 7.5, 125 mM KCl,10 mM MgCl2). All the samples contained the same concentration of DMSO (0.5%). The tested peptide was injected at a flow rate of 30 μL min^−1 for 200 s of association, followed by 200 s of disassociation at 25 °C. The final graphs were obtained by subtracting blank sensorgrams. The data were analyzed with Biacore Insight Evaluation software.
Supplementary Fig. 5. The binding site of XQ2 may locate at the cGAS-dsDNA interface. (a) The 2D schematic of docked structure of XQ2 with cGAS (PDB ID: 4O69). (b) Structure activity relationship (SAR) analysis of XQ2 a nd its analogues based on the docked structure of the peptides with cGAS. (c) FAM-ISD (40nM) was incubated with the indicated doses of hcGAS-FL or hcGAS-FL (D191R) mutant, and the polarization signal was detected by a microplate reader. (d) SPR analysis of the binding of hcGAS-FL (D191R) mutant with XQ2. The binding affinity (Kd) […]
Data are representative of three independent experiments in (c). (Data […]
as §2
XQ- Sequence Inhibition % […]

| Structure (SMILES) | Relative mRNA level Cxcl10 ([1]; Fig. S9f, TREX1 knockdown (siTREX1 +) THP1 cells, XQ2B +, individual replicates, siTREX1 alone 2.64-3.32) | Relative mRNA level Ifnb1 ([1]; Fig. S9f, TREX1 knockdown (siTREX1 +) THP1 cells, XQ2B +, individual replicates, siTREX1 alone 15.6-16.4) | expression of Ifnb1, Cxcl10 with Trex1-siRNA ([1]; THP1, 10 μM, 24 h) | half-life (in vivo) | level at 0.083 h (in vivo; Conc (ng/ml), Fig. S11a) | level at 0.25 h (in vivo; Conc (ng/ml), Fig. S11a) | level at 0.5 h (in vivo; Conc (ng/ml), Fig. S11a) | IFNB1 mRNA level (Fig. S7c) ([2]; 2'3'-cGAMP, XQ2B) | IFNB1 mRNA level (Fig. S7c) ([2]; SATE-cddA, XQ2B) | signaling induced by STING agonists ([2]; THP1, 10 μM) | IFNB1 mRNA level (Fig. S7c) ([2]; c-di-AM(PS)2, XQ2B) | production of IFN-β and CXCL10 upon HSV-1 infection (THP1 cells; 10 μM) | IFN-β protein, ELISA, Fig. 5a (THP1 cells; HSV-1 1×10^5 pfu 24 h, XQ2 10 μM) | CXCL10 protein, ELISA, Fig. 5b (THP1 cells; HSV-1 2×10^4 pfu 24 h, XQ2 10 μM) | CXCL10 protein, ELISA, Fig. 5b (THP1 cells; HSV-1 5×10^4 pfu 24 h, XQ2 10 μM) | inhibition of dsDNA binding to hcGAS-FL (D191R), FP [3] | binding to hcGAS-FL (D191R), SPR (hcGAS-FL (D191R) mutant) |
| --- | --- | --- | --- | --- | --- | --- | --- | --- | --- | --- | --- | --- | --- | --- | --- | --- | --- |
| CC(C)C[C@@H]1NC(=O)[C@H](CCCNC(=N)N)NC(=O)[C@H](C(C)C)NC(=O)[C@@H]2CCCN2C(=O)[C@@H](Cc2ccccc2)NC(=O)[C@H](CC(C)C)NC(=O)[C@H](CCCNC(=N)N)NC(=O)[C@H]([C@@H](C)O)NC(=O)[C@H](C)NC(=O)[C@@H](Cc2ccccc2)NC1=O [XQ2B] (cyclo([dF]ATRL[dF]PVRL)) | 2.255 and 1.956 and 2.174 | 8.9487 and 8.582 and 9.951 | markedly inhibited the expression of these genes in mouse L929 and human THP1 cells with Trex1-siRNA | 1.1 h | 101 µg/mL | 63.6 µg/mL | 50.4 µg/mL | 4003.21 and 3809.06 and 3708.08 | 747.639 and 650.174 and 712.905 | no significant effect on signaling induced by STING agonists | 9.033 and 9.206 and 10.1658 | – | – | – | – | – | – |
| CC(C)C[C@@H]1NC(=O)[C@H](CCCNC(=N)N)NC(=O)[C@H](C(C)C)NC(=O)[C@@H]2CCCN2C(=O)[C@@H](Cc2ccccc2)NC(=O)[C@H](CC(C)C)NC(=O)[C@H](CCCNC(=N)N)NC(=O)[C@H](C(C)C)NC(=O)[C@H](C)NC(=O)[C@@H](Cc2ccccc2)NC1=O [XQ2, Cyclo (LfAVRLfPVR)] (cyclo(L[dF]AVRL[dF]PVR)) | – | – | – | – | – | – | – | – | – | – | – | significantly inhibited the production of IFN-β and CXCL10 | 82.1785 and 88.212 and 94.6416 | 81.286 and 72.3045 and 81.612 | 1196.79 and 1171.64 and 1198.54 | markedly reduced | markedly reduced the binding affinity of XQ2 with cGAS; also recorded: could not be determined by saturation binding |
